Measurements: US5670514A, “Compositions for inhibiting bone loss” (priority 1996, dated 1997)

target: T1, Human Type I Steroid 5α-Reductase (Homo sapiens, UniProt P18405); experiment: Human Type I Steroid 5α-Reductase homogenate assay (human scalp enzyme; conversion of [3H]-testosterone to [3H]-5α-dihydrotestosterone and other 5α-reduced metabolites); type: biochemical; settings: 0.3 μM; compared to control reaction mixtures; 50 nM [3H]-testosterone, pH 7.5, 25°, 180 min
T1 construct: Preparation of Type I 5α-Reductase from Human Scalp; from tissue; host or cells: human scalp skin (punch biopsies from hair transplant graft recipient sites), 100,000 x g pellet of homogenate
T1 sequence (P18405 1-259): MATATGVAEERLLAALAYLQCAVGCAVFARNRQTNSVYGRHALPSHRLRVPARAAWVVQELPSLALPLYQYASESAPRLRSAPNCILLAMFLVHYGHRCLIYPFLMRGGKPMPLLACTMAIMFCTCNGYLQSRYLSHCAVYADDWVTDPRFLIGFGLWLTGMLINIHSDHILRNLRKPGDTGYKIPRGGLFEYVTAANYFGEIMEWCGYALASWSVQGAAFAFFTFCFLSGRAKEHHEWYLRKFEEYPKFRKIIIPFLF
Excerpt: Methodology of Human Type I Steroid 5α-Reductase Assays
The subcutaneous tissue was cut away and discarded. The skin was frozen with liquid nitrogen and pulverized to powder. […] The homogenization procedure consisted of four 15 second pulses. Connective tissue was cleared from the probe with forceps between pulses. […] The pellet was resuspended by homogenization with a Dounce homogenizer using the same buffer solution. An aliquot was taken for protein determination by the Lowry method, Lowry, et al., Protein Measurement with the Folin Phenol Reagent, J. Biol. Chem., 193, 265-75 (1951). Aliquots of the enzyme preparation were stored at -80° until use.
The reaction was initiated by the addition of 0.5 mg of Type I 5α-reductase. The reaction mixture was incubated at 25° for 180 min, and terminated by the addition of 1 mL ice-cold stopping solution. […] The samples were prepared for high performance liquid chromatography by solid phase extraction. […] The reaction mixtures were then applied to the columns. The columns were subsequently washed with 5 mL of acetone:water (1:4), followed by 0.3 mL of methanol. The samples were then eluted with 3 mL of methanol and collected in 20 mL scintillation vials. Three mL of water was then added to each scintillation vial. […] The column temperature was maintained at 35° and the flow rate was 1.5 mL/min.

percent inhibition of Type I 5AR	Compound
13%	CN1C(=O)CC[C@]2(C)c3ccc(-c4cccc(NC(=O)C(C)(C)C)c4)cc3CC[C@@H]12 [Example 34, (+)-(4aR)-(10bR)-4-methyl-8-(3-t-butylcarboxamidophenyl)-10b-methyl-1,2,3,4,4a,5,6,10b-octahydrobenzo[f]quinolin-3-one]
24%	CN1C(=O)CC[C@]2(C)c3ccc(-c4cccc(NC(=O)C5CCN(Cc6ccccc6)CC5)c4)cc3CC[C@@H]12 [Example 209, (+)-(4aR)-(10bR)-4-methyl-8-(3-[1-benzyl-4-piperidinyl-carboxamido]phenyl)-10b-methyl-1,2,3,4,4a,5,6,10b-octahydrobenzo[f]quinolin-3-one]
86%	CN1C(=O)CC[C@]2(C)c3ccc(-c4ccc(-c5ccc(NC(=O)C(C)(C)C)s5)cc4)cc3CC[C@@H]12 [Example 222, (+)-(4aR)-(10bR)-4-methyl-8-(4-[(2-t-butylcarbonylamino]-5-thienyl]phenyl)-10b-methyl-1,2,3,4,4a,5,6,10b-octahydro-benzo[f]quinolin-3-one]
90%	(+)-(4aR)-(10bR)-4-methyl-8-benzyloxycarbonyl-10b-methyl-1,2,3,4,4a,5,6,10b-octahydrobenzo[f]quinolin-3-one [Example 144]
